Target: T1, full length human Androgen Receptor (AR) (Homo sapiens, UniProt P10275)
T1 construct: transiently transfected in T225 cm^2 flasks with a full length human Androgen Receptor (AR) cDNA; expressed in transfected cells; host or cells: CV-1 cells (ATCC CCL-70), transiently transfected with AR cDNA in pcDNA3 and ARE-luciferase in pGL3
T1 sequence (P10275 1-920): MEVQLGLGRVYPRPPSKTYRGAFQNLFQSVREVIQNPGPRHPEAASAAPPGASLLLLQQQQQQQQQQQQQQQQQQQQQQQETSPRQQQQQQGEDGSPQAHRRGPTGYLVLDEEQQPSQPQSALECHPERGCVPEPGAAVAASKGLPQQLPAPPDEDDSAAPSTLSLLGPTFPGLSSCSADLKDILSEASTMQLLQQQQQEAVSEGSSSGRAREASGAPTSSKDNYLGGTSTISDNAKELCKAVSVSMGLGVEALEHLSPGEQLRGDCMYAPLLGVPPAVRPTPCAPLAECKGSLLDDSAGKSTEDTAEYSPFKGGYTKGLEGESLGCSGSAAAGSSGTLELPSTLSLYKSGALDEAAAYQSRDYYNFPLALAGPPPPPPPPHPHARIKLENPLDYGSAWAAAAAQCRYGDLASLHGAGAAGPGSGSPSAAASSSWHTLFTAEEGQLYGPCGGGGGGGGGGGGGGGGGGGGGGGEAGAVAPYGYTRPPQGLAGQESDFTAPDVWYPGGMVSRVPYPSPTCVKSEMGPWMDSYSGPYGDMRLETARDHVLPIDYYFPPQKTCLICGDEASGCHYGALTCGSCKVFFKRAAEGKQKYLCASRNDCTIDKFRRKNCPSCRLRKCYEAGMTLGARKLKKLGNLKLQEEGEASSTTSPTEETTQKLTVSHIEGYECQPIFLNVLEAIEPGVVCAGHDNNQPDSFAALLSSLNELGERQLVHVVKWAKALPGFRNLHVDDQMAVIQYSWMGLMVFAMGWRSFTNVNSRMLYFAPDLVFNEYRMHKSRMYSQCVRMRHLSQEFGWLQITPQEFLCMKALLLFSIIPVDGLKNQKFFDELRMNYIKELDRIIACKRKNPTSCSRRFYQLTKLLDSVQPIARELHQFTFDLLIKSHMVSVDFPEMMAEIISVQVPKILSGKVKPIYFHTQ
Assay: Androgen Receptor-Mediated Transcriptional Assay (ARE-luciferase reporter in transiently transfected CV-1 cells)
Assay type: cell-based
Conditions: CV-1 cells transfected with human AR and ARE-luciferase; 16-18 hours incubation; luminescence; read-out: EC50 Values for Compounds 1-22 from Androgen Receptor-Mediated Transcriptional Assay
Description: Androgen Receptor-Mediated Transcriptional Assay Summary
CV-1 cells (American Tissue Culture Collection cat# CCL-70) were expanded in Growth Media and transiently transfected in T225 cm^2 flasks with a full length human Androgen Receptor (AR) cDNA in the pcDNA3 expression vector and a human Androgen Response Element (ARE)-luciferase cDNA in the pGL3 vector (both from Invitrogen). DNA (μg) and Lipofectamine (μl) at a ratio of 1:3 were incubated with the cells in a total volume of 55 mL Basal Media for 4 hours. Cells were harvested by trypsinization and frozen back (−150° C. cryomed) at a concentration of 4.3 million cells/mL.
On the day of the assay, frozen cells were thawed and re-suspended in Re-suspension Media and plated at 40,000 cells/well (in 100 μL volume) in 96 well white plates and were incubated for at least 4 h at 37° C., 5% CO2. After incubation, cells were treated with the compounds to be screened. 10 mM stocks of the compounds were serially diluted 1:10 in 100% DMSO followed by an additional 1:100 dilution in Assay Media. These dilution series were added to the cell plates resulting in a further 1:10 dilution and a final % DMSO of 0.1%. The vehicle control wells also contained this dilution of DMSO and the positive control wells contained […] (DHT) as an AR agonist at final concentration of 0.3 nM in 0.1% DMSO. Cells were incubated for 16-18 hours at 37° C. and 5% CO2. Then the culture media was removed from and the cells were lysed in 20 μL of cell lysis reagent for 5 minutes at room temperature. 50 μL of luciferase reagent was added to each well and luminescence, over 5 seconds, was measured.
EC50 (half maximal effective concentration) was calculated from concentration series plots which generated sigmoidal curves. Xlfit software was used to plot the best fit of the % effect vs concentration and to calculate the EC50.
Reagents and Materials used in the Androgen Receptor-Mediated Transcriptional Assay include the following: • Growth Media—DMEM/high glucose—10% FBS: 500 ml phenol red DMEM/high glucose (Gibco, Grand Island N.Y., cat #10569-010), 10% non heat-inactivated Fetal Bovine Serum (FBS) (Atlanta Biologicals, Norcross Ga., cat #S-12450), 1% Nonessential Amino Acids (Gibco, cat #11140-050), 1% Penicillin-Streptomycin (Gibco, cat #15140-122) • Basal Media—phenol red free DMEM/high glucose (Gibco, cat #31053-028)+1% Na Pyruvate (Gibco, cat #11360-070), 1% Nonessential Amino Acids (Gibco, cat #11140-050), 1% GlutaMAX-I (Gibco, cat #35050-061) • Re-suspension Media—basal media+1% Penicillin-Streptomycin (Gibco, cat #15140-122) • Assay Media—basal media+5% charcoal stripped FBS (HyClone, Logan Utah, Cat #SH30068)+1% Penicillin-Streptomycin (Gibco, cat #15140-122) • Cell Lysis Reagent—Promega, Cat #PAE1531 • Luciferase Reagent—Promega, Cat #PAE1483

EC50: 10 nM
Structure (SMILES): N#Cc1nccc2cc(N3[C@H](c4cccc(C(F)(F)F)c4)CNS3(=O)=O)ccc12 (single isomer, unassigned) [Compound 6]
